Reference: US12264134B2 (Merck Sharp & Dohme LLC, priority 2018, dated 2025)

These molecules were tested against IDO1 (Homo sapiens, UniProt P14902) (assay: IDO1 Cellular Assay in HeLa Cells Stimulated with IFNγ). Conditions: read-out: HeLa Cell Potency, IC50.
Format: cell-based

Sequence of IDO1 (P14902 whole entry): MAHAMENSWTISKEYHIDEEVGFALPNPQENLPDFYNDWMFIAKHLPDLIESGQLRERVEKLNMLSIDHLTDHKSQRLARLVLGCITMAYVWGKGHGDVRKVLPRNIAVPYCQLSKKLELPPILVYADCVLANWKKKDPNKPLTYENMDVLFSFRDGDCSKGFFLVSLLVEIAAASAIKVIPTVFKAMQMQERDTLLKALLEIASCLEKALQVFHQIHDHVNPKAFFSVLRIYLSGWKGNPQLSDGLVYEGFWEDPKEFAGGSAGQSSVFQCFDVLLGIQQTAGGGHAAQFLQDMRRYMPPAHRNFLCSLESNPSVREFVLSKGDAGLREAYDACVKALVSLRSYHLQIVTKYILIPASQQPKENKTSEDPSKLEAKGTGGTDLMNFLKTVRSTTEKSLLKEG

Row | IC50 | SMILES
1 | 1.64 nM | Cc1cccc(N2CCN(C(=O)Cn3nc(C(=O)N4CCN(C(=O)CO)CC4)c4c3CC3CC43)CC2)c1C (stereo not drawn) [Example 287, 1-[4-(2,3-dimethylphenyl)piperazin-1-yl]-2-{3-[4-(hydroxyacetyl)piperazine-1-carbonyl]-3b,4,4a,5-tetrahydro-1H-cyclopropa[3,4]cyclopenta[1,2-c]pyrazol-1-yl}ethan-1-one]
2 | 3.7 nM | Cc1cccc(N2CCN(C(=O)Cn3nc(C(=O)N4C[C@H](O)C[C@H]4C)c4c3C[C@H]3C[C@@H]43)CC2)c1C [Example 292, 1-[4-(2,3-dimethylphenyl)piperazin-1-yl]-2-{(3bR,4aR)-3-[(2R,4R)-4-hydroxy-2-methylpyrrolidine-1-carbonyl]-3b,4,4a,5-tetrahydro-1H-cyclopropa[3,4]cyclopenta[1,2-c]pyrazol-1-yl}ethan-1-one]
3 | 6.69 nM | Cc1cccc(N2CCN(C(=O)Cn3nc(C(=O)N4C[C@@H](C)O[C@@H](C)C4)c4c3CC[C@@H](C(F)(F)F)C4)CC2)c1C [Example 295, 2-[(5R)-3-[(2R,6S)-2,6-dimethylmorpholine-4-carbonyl]-5-(trifluoromethyl)-4,5,6,7-tetrahydro-1H-indazol-1-yl]-1-[4-(2,3-dimethylphenyl)piperazin-1-yl]ethan-1-one]
4 | 14.3 nM | Cc1cccc(N2CCN(C(=O)Cn3nc(C(=O)N4CC[C@@H](O)[C@@H](F)C4)c4c3C[C@@H]3C[C@H]43)CC2)c1C [Example 298, 1-[4-(2,3-dimethylphenyl)piperazin-1-yl]-2-{(3bS,4aS)-3-[(3S,4R)-3-fluoro-4-hydroxypiperidine-1-carbonyl]-3b,4,4a,5-tetrahydro-1H-cyclopropa[3,4]cyclopenta[1,2-c]pyrazol-1-yl}ethan-1-one]
5 | 15.1 nM | Cc1cccc(N2CCN(C(=O)Cn3nc(C(=O)N4C[C@@H](C)O[C@@H](C)C4)c4c3C[C@@H]3C[C@H]43)CC2)c1C [Example 299, 2-{(3bS,4aS)-3-[(2R,6S)-2,6-dimethylmorpholine-4-carbonyl]-3b,4,4a,5-tetrahydro-1H-cyclopropa[3,4]cyclopenta[1,2-c]pyrazol-1-yl}-1-[4-(2,3-dimethylphenyl)piperazin-1-yl]ethan-1-one]
6 | 16.9 nM | Cc1cccc(N2CCN(C(=O)Cn3nc(C(=O)N4CCC(F)(CO)C4)c4c3CCC4)CC2)c1C (stereo not drawn) [Example 300, 1-[4-(2,3-dimethylphenyl)piperazin-1-yl]-2-{3-[3-fluoro-3-(hydroxymethyl)pyrrolidine-1-carbonyl]-5,6-dihydrocyclopenta[c]pyrazol-1(4H)-yl}ethan-1-one]
7 | 17.1 nM | Cc1cccc(N2CCN(C(=O)Cn3nc(C(=O)N4CC5(CO)CC4C5)c4c3CCC4)CC2)c1C [Example 301, 1-[4-(2,3-dimethylphenyl)piperazin-1-yl]-2-{3-[4-(hydroxymethyl)-2-azabicyclo[2.1.1]hexane-2-carbonyl]-5,6-dihydrocyclopenta[c]pyrazol-1(4H)-yl}ethan-1-one]
8 | 24.9 nM | Cc1cccc(N2CCN(C(=O)Cn3nc(C(=O)N4C[C@@H](C)O[C@@H](C)C4)c4c3CC[C@H](C(F)(F)F)C4)CC2)c1C [Example 302, 2-[(5S)-3-[(2R,6S)-2,6-dimethylmorpholine-4-carbonyl]-5-(trifluoromethyl)-4,5,6,7-tetrahydro-1H-indazol-1-yl]-1-[4-(2,3-dimethylphenyl)piperazin-1-yl]ethan-1-one]
9 | 29.9 nM | Cc1cccc(N2CCN(C(=O)Cn3nc(C(=O)N4C[C@@H](C)O[C@@H](C)C4)c4c3CCC(C(F)(F)F)C4)CC2)c1C (stereo partly drawn) [Example 303, 2-{3-[(2R,6S)-2,6-dimethylmorpholine-4-carbonyl]-5-(trifluoromethyl)-4,5,6,7-tetrahydro-1H-indazol-1-yl}-1-[4-(2,3-dimethylphenyl)piperazin-1-yl]ethan-1-one]
10 | 30.2 nM | Cc1cccc(N2CCN(C(=O)Cn3nc(C(=O)N4CC[C@@H](O)[C@@H](F)C4)c4c3CCC3(C4)CC3(F)F)CC2)c1C (stereo partly drawn) [Example 304, 2-{2,2-difluoro-3′-[(3S,4R)-3-fluoro-4-hydroxypiperidine-1-carbonyl]-6′,7′-dihydrospiro[cyclopropane-1,5-indazol]-1′(′4H)-yl}-1-[4-(2,3-dimethylphenyl)piperazin-1-yl]ethan-1-one]
11 | 48 nM | Cc1cccc(N2CCN(C(=O)Cn3nc(C(=O)N4CC5(CC(O)C5)C4)c4c3CCC4)CC2)c1C [Example 305, 1-[4-(2,3-dimethylphenyl)piperazin-1-yl]-2-[3-(6-hydroxy-2-azaspiro[3.3]heptane-2-carbonyl)-5,6-dihydrocyclopenta[c]pyrazol-1(4H)-yl]ethan-1-one]
12 | 55.4 nM | Cc1cccc(N2CCN(C(=O)Cn3nc(C(=O)N4CC5CC(C4)C5O)c4c3CCC4)CC2)c1C (stereo not drawn) [Example 306, 1-[4-(2,3-dimethylphenyl)piperazin-1-yl]-2-[3-(6-hydroxy-3-azabicyclo[3.1.1]heptane-3-carbonyl)-5,6-dihydrocyclopenta[c]pyrazol-1(4H)-yl]ethan-1-one]
13 | 71.4 nM | Cc1cccc(N2CCN(C(=O)Cn3nc(C(=O)N4CC[C@H](O)[C@H](F)C4)c4c3C[C@@H]3C[C@H]43)CC2)c1C [Example 307, 1-[4-(2,3-dimethylphenyl)piperazin-1-yl]-2-{(3bS,4aS)-3-[(3R,4S)-3-fluoro-4-hydroxypiperidine-1-carbonyl]-3b,4,4a,5-tetrahydro-1H-cyclopropa[3,4]cyclopenta[1,2-c]pyrazol-1-yl}ethan-1-one]
14 | 400 nM | Cc1cccc(N2CCN(C(=O)Cn3nc(C(=O)N4C[C@@H](O)[C@@H](O)C4)c4c3CCC4)CC2)c1C [Example 308, 2-{3-[(3R,4S)-3,4-dihydroxypyrrolidine-1-carbonyl]-5,6-dihydrocyclopenta[c]pyrazol-1(4H)-yl}-1-[4-(2,3-dimethylphenyl)piperazin-1-yl]ethan-1-one]
15 | 410 nM | Cc1cccc(N2CCN(C(=O)Cn3nc(C(=O)N4C[C@H](O)[C@@H](O)C4)c4c3CCC4)CC2)c1C [Example 309, 2-{3-[(3S,4S)-3,4-dihydroxypyrrolidine-1-carbonyl]-5,6-dihydrocyclopenta[c]pyrazol-1(4H)-yl}-1-[4-(2,3-dimethylphenyl)piperazin-1-yl]ethan-1-one]
16 | 1.86 nM | Cc1cccc(N2CCN(C(=O)Cn3nc(C(=O)N4C[C@@H](C)O[C@@H](C)C4)c4c3CC3CC43)CC2)c1C (stereo partly drawn) [Example 310, 2-{3-[(2R,6S)-2,6-dimethylmorpholine-4-carbonyl]-3b-4,4a,5-tetrahydro-1H-cyclopropa[3,4]cyclopenta[1,2-c]pyrazol-1-yl}-1-[4-(2,3-dimethylphenyl)piperazin-1-yl]ethan-1-one]
17 | 4.39 nM | Cc1cccc(N2CCN(C(=O)Cn3nc(C(=O)N4C[C@@H](C)O[C@@H](C)C4)c4c3C3CC3C4)CC2)c1C (stereo partly drawn) [Example 311, 2-{3-[(2R,6S)-2,6-dimethylmorpholine-4-carbonyl]-4,4a,5,5a-tetrahydro-1H-cyclopropa[4,5]cyclopenta[1,2-c]pyrazol-1-yl}-1-[4-(2,3-dimethylphenyl)piperazin-1-yl]ethan-1-one]
18 | 1.74 nM | Cc1c(Cl)cccc1N1CCN(C(=O)Cn2nc(C(=O)N3CCC(OCCO)CC3)c3c2C[C@H]2C[C@@H]32)C2(CC2)C1 [Example 312, 1-(7-(3-chloro-2-methylphenyl)-4,7-diazaspiro[2.5]octan-4-yl)-2-((3bR,4aR)-3-(4-(2-hydroxyethoxy)piperidine-1-carbonyl)-3b,4,4a,5-tetrahydro-1H-cyclopropa[3,4]cyclopenta[1,2-c]pyrazol-1-yl)ethan-1-one]
19 | 67.5 nM | Cc1c(Cl)cccc1N1CCN(C(=O)Cn2nc(C(=O)N3CCC(NCCO)CC3)c3c2C[C@H]2C[C@@H]32)C2(CC2)C1 [Example 313, 1-[7-(3-chloro-2-methylphenyl)-4,7-diazaspiro[2.5]octan-4-yl]-2-[(3bR,4aR)-3-{4-[(2-hydroxyethyl)amino]piperidine-1-carbonyl}-3b,4,4a,5-tetrahydro-1H-cyclopropa[3,4]cyclopenta[1,2-c]pyrazol-1-yl]ethan-1-one]
20 | 2.26 nM | Cc1c(Cl)cccc1N1CCN(C(=O)Cn2nc(C(=O)N3CCN(CCO)CC3)c3c2C[C@H]2C[C@@H]32)C2(CC2)C1 [Example 316, 1-[7-(3-chloro-2-methylphenyl)-4,7-diazaspiro[2.5]octan-4-yl]-2-{(3bR,4aR)-3-[4-(2-hydroxyethyl)piperazine-1-carbonyl]-3b,4,4a,5-tetrahydro-1H-cyclopropa[3,4]cyclopenta[1,2-c]pyrazol-1-yl}ethan-1-one]
21 | 1.41 nM | Cc1c(F)ccc(N2CCN(C(=O)Cn3nc(C(=O)N4CC[C@@H](O)[C@H](F)C4)c4c3C[C@H]3C[C@@H]43)C3(CC3)C2)c1C [Example 318, 1-[7-(4-fluoro-2,3-dimethylphenyl)-4,7-diazaspiro[2.5]octan-4-yl]-2-{(3bR,4aR)-3-[(3R,4R)-3-fluoro-4-hydroxypiperidine-1-carbonyl]-3b,4,4a,5-tetrahydro-1H-cyclopropa[3,4]cyclopenta[1,2-c]pyrazol-1-yl}ethan-1-one]
22 | 0.78 nM | Cc1c(N2CCN(C(=O)Cn3nc(C(=O)N4CCC(O)(CF)CC4)c4c3C[C@H]3C[C@@H]43)CC2)cccc1C(F)(F)F [Example 336, 2-((3bR,4aR)-3-(4-(fluoromethyl)-4-hydroxypiperidine-1-carbonyl)-3b,4,4a,5-tetrahydro-1H-cyclopropa[3,4]cyclopenta[1,2-c]pyrazol-1-yl)-1-(4-(2-methyl-3-(trifluoromethyl)phenyl)piperazin-1-yl)ethanone]
23 | 2.85 nM | Cc1c(N2CCN(C(=O)Cn3nc(C(=O)N4CCN(C(=O)CO)CC4)c4c3C[C@H]3C[C@@H]43)CC2)cccc1C(F)(F)F [Example 337, 2-hydroxy-1-(4-((3bR,4aR)-1-(2-(4-(2-methyl-3-(trifluoromethyl)phenyl)piperazin-1-yl)-2-oxoethyl)-3b,4,4a,5-tetrahydro-1H-cyclopropa [3,4]cyclopenta[1,2-c]pyrazole-3-carbonyl)piperazin-1-yl)ethanone]
24 | 2.46 nM | CC(=O)NC1CCN(C(=O)c2nn(CC(=O)N3CCN(c4cccc(C(F)(F)F)c4C)CC3)c3c2[C@@H]2C[C@@H]2C3)CC1 [Example 340, N-(1-((3bR,4aR)-1-(2-(4-(2-methyl-3-(trifluoromethyl)phenyl)piperazin-1-yl)-2-oxoethyl)-3b,4,4a,5-tetrahydro-1H-cyclopropa[3,4]cyclopenta[1,2-c]pyrazole-3-carbonyl)piperidin-4-yl)acetamide]
